Measurements: the supplement of paper PMC10307832

Key:
Assay in all cases: relative viability (nuclei count vs DMSO), 5 days (fraction); higher = more cells survive
[1] = compound: C[C@@H](N)c1ccc(C(=O)Nc2ccnc3[nH]ccc23)cc1 + Cc1nc(Nc2ncc(C(=O)Nc3c(C)cccc3Cl)s2)cc(N2CCN(CCO)CC2)n1 [Dasatinib] (partner 0.075 µM)
Method in brief: (§1)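 Relative viability divides the nuclei count in treated wells by that in vehicle wells. Lung cancer cell lines were seeded in 1536-well plates, dosed by pin tool the next day, and fixed and stained after 5 days in one step with final 0.05% Triton X-100, 1% formaldehyde and 1 ug/ml Hoechst. Dosing was a single drug or a fixed anchor-drug dose plus five library-drug doses (not always all listed) in √10 steps, and values are medians of duplicate plates imaged at 4×.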

Tanzisertib + Alpelisib = compound: O[C@H]1CC[C@H](Nc2ncc3nc(Nc4c(F)cc(F)cc4F)n([C@H]4CCOC4)c3n2)CC1 [Tanzisertib] + Cc1nc(NC(=O)N2CCC[C@H]2C(N)=O)sc1-c1ccnc(C(C)(C)C(F)(F)F)c1 [Alpelisib] (partner 2 µM)
Method in brief: as §1

Tanzisertib + Decitabine = compound: O[C@H]1CC[C@H](Nc2ncc3nc(Nc4c(F)cc(F)cc4F)n([C@H]4CCOC4)c3n2)CC1 [Tanzisertib] + Nc1ncn([C@H]2C[C@H](O)[C@@H](CO)O2)c(=O)n1 [Decitabine] (partner 2 µM)
Method in brief: as §1

Tanzisertib + Vorinostat = compound: O[C@H]1CC[C@H](Nc2ncc3nc(Nc4c(F)cc(F)cc4F)n([C@H]4CCOC4)c3n2)CC1 [Tanzisertib] + O=C(CCCCCCC(=O)Nc1ccccc1)NO [Vorinostat] (partner 1 µM)
Method in brief: as §1

Q: For UMC-11, which relative viability ([1]; first compound 0.04 µM) is on record?
A: 0.543

Q: What about the relative viability ([1]; first compound 0.1265 µM) of the same cell line?
A: 0.482

Q: And the relative viability ([1]; first compound 0.4 µM)?
A: 0.58

Q: And the relative viability ([1]; first compound 1.265 µM)?
A: 0.518

Q: And the relative viability ([1]; first compound 4 µM)?
A: 0.527

Q: And the relative viability (Tanzisertib + Alpelisib; first compound 0.08 µM)?
A: 0.835

Q: What about the relative viability (Tanzisertib + Alpelisib; first compound 0.253 µM) of the same cell line?
A: 0.987

Q: And the relative viability (Tanzisertib + Alpelisib; first compound 0.8 µM)?
A: 0.999

Q: And the relative viability (Tanzisertib + Alpelisib; first compound 2.53 µM)?
A: 0.956

Q: What about the relative viability (Tanzisertib + Alpelisib; first compound 8 µM) of the same cell line?
A: 1.13

Q: What about the relative viability (Tanzisertib + Decitabine; first compound 0.08 µM) of the same cell line?
A: 0.662

Q: And the relative viability (Tanzisertib + Decitabine; first compound 0.253 µM)?
A: 0.688

Q: And the relative viability (Tanzisertib + Decitabine; first compound 0.8 µM)?
A: 0.654

Q: What about the relative viability (Tanzisertib + Decitabine; first compound 2.53 µM) of the same cell line?
A: 0.852

Q: And the relative viability (Tanzisertib + Decitabine; first compound 8 µM)?
A: 0.85

Q: What about the relative viability (Tanzisertib + Vorinostat; first compound 0.08 µM) of the same cell line?
A: 0.41

Q: And the relative viability (Tanzisertib + Vorinostat; first compound 0.253 µM)?
A: 0.401

Q: And the relative viability (Tanzisertib + Vorinostat; first compound 0.8 µM)?
A: 0.438

Q: What about the relative viability (Tanzisertib + Vorinostat; first compound 2.53 µM) of the same cell line?
A: 0.404

Q: What about the relative viability (Tanzisertib + Vorinostat; first compound 8 µM) of the same cell line?
A: 0.388
